Data published in patent US8173840B2, “Compounds with high therapeutic index” (Signature R&D Holdings, LLC, priority 2003, dated 2012).
Converted amounts (≈) assume the structure as drawn. “And” between values parts separate entries of the source, which are not always exact repeats. Identical values can stand only once. Like-named read-outs stand apart in the source and are kept apart here. Each block holds one compound with its values, some of them ahead of it.

Legend:
[1] = Solubility of propofol and its amino acid esters in water
albino mouse = experiment: Anesthetic effect in male albino mice, righting reflex as index; settings: for dose response relation (statistical analysis): low, intermediate, high dose
[2] = tested on: albino mice (Swiss strain); experiment: 14 day repeated dose toxicity study, intravenous route, propofol esters
[3] = tested on: fasted male albino rats (Wistar strain); experiment: Gastric mucosa irritation of acetylsalicylic acid esters; assay type: in vivo, rat; settings: two doses, 100 and 200 mg/kg
Description: Aspirin served as a reference control. […] All the doses were expressed as aspirin molar equivalents. The doses used as well as the molar equivalents are presented below. The rats were fasted for a period of 18 to 22 hours before dosing. The test item was administered as a single dose by gavage. Three hours after drug administration, the animals were killed humanely by CO2 gas inhalation. The stomach was dissected out and observed for • the quantity of mucous exudate, • degree of hyperemia and thickening of stomach wall, • hemorrhagic spots (focal or diffuse), nature of hemorrhages (petechial or ecchymotic) along with the size and • perforations

Male albino rats = experiment: Blood clotting time in albino rats, 2 hours after dosing; assay type: in vivo, rat; settings: for Mean Clotting Time (± S.D.): 20 mg/kg as aspirin, 2 hours (±10 minutes) after dosing; for mean blood clotting time with respect to positive control (statistics): after two hours
Description: Aspirin served as positive control. Male albino rats were exposed to aspirin and to 3 new formulations of amino acid derivatives of aspirin derivatives at one dose level of 20 mg/kg body weight. […]. The doses were expressed as aspirin molar equivalents.
The efficacy in terms of time required for the blood clotting time at the dose level of 20 mg/kg body weight for different formulations of amino acid derivatives of aspirin and aspirin (positive control) are presented below:
The data on the mean clotting time (MCT) of the animals, estimated 2 hours (±10 minutes) after dosing, at the dose level of 20 mg/kg body weight for the formulations of aspirin derivatives, vehicle control and positive control are presented below

rats = experiment: Clotting time in rats, different date, time intervals and doses (Table 24); assay type: in vivo, rat
Text: The following additional data were obtained, when the same drugs were compared in rats on a different date with different time intervals and doses: […]

[4] = Plasma aspirin and salicylic acid in human volunteers; assay type: in vivo
Text: This is shown in FIG. 12 which depicts the concentration of salicyclic Acid in human plasma with respect to four volunteers who took Acetylsalicyclic Acid-L-Threonine Ester and two volunteers who took Aspirin.

[5] = tested on: albino rats (Wistar strain); settings: rat, in vivo;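 further: one dose level only, compared with a vehicle control group, with doses stated as Aspirin molar equivalents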
albino rats = experiment: Blood clotting time in albino rats, one hour after dosing; assay type: in vivo, rat; settings: for Mean Clotting Time (±S.D.), Low Dose: 1.0 mg/kg as aspirin; for Mean Clotting Time (±S.D.), Low Dose / Mean Clotting Time (±S.D.), Intermediate Dose / Mean Clotting Time (±S.D.), High Dose / statistical analysis of mean clotting time vs vehicle control: one hour after dosing; for Mean Clotting Time (±S.D.), Intermediate Dose: 4.0 mg/kg as aspirin; for Mean Clotting Time (±S.D.), High Dose: 10.0 mg/kg as aspirin; for effectiveness with respect to clotting time: one hour after administration
Description: The data on the mean clotting time (MCT) of the animals of low, intermediate and high dose groups of different formulations, vehicle control and positive control groups estimated one hour after dosing were presented below (Table 19):
Aspirin served as positive control. The study was conducted at three dose levels with the new formulations and positive control along with a vehicle control group.
The doses for the main study were selected based on the dose range finding experiments with acetylsalicylic acid. All the doses were expressed as aspirin molar equivalents. The doses used are presented below.

human volunteers = experiment: Blood clotting time studies in human volunteers; assay type: in vivo; settings: for AVERAGE CLOTTING TIME: human volunteers, listed as ASA-T ESTER
Description: Several blood clotting time studies were performed on a limited number of human volunteers with Acetylsalicylic Acid-L-Threonine Ester. […] This plot was derived from the data in Table 29. The two Acetylsalicylic Acid-L-Threonine Ester blocks shown above correspond to two separate volunteers who took the test drug over a period of 5 days. The third volunteer took Bayer Aspirin for 5 days. As per FIG. 2, increase in clotting time occurred on the very first day of drug intake, and remained higher than Bayer ASA during the subsequent administrations.

[6] = cited from earlier work; for solubility in deionized water: deionized water at 25° C.
laboratory mice [7] = experiment: DSS induced ulcerative colitis in mice, disease treatment study (Disease Activity Index); assay type: in vivo, mouse; settings: for Mean DAI: treatment started after colitis symptoms, mean of 10 mice
Text: The mean group DAI is the determined.
Much more dramatic results were obtained when the mice were initially treated with DSS to induce colitis. Once clear symptoms of colitis were seen, DSS was replaced by drinking water, and treatment started with test and reference drugs, including vehicle control. All results are mean of 10 mice.

laboratory mice [8] = settings: for Mean DAI: DSS coupled with drug from day 1, 10 mice per group; for performance in the model: DSS coupled with drug from day 1

Compound: CC(C)c1cccc(C(C)C)c1OC(=O)C(N)CCCCN.Cl.Cl (stereo in doubt) [Propofol Lysine Ester, 2(S),6-Diamino-hexanoic acid 2,6-diisopropyl-phenyl ester, dihydrochloride]
solubility in water [1]: > 250 mg/mL
anesthetic effect, relative efficacy (albino mouse; Intermediate Dose): did not show any anesthetic effect
anesthetic effect, relative efficacy (albino mouse; Low Dose): did not show any anesthetic effect
efficacy in inducing anesthesia based on time required to regain the righting reflex (conclusion) (albino mouse; albino mice): relatively better efficacy
dose response relation (statistical analysis) (albino mouse): significant improvement at 5% significance level in the relative efficacy for the high dose when compared to low dose group

Compound: CC(C)c1cccc(C(C)C)c1OC(=O)C1CCCN1.Cl (stereo in doubt) [Propofol Proline Ester, Pyrrolidine-2(S)-carboxylic acid 2,6-diisopropyl-phenyl ester, hydrochloride]
feed intake ([2]; 14 days): normal and comparable to that of vehicle control group
behavior, feed consumption, organ weights, histopathology of different organs ([2]; 14 days, vs reference group): normal and comparable to that of the animals of the reference group
animals exhibiting clinical symptoms of toxicity ([2]; IV daily 14 days): None of the animals
body weight gain ([2]; IV daily 14 days, compared to vehicle control): normal and comparable to that of vehicle control group of animals
MCV vs Propofol injection (RC) [p<0.05] ([2]; female animals): significantly decreased
level of urea vs Propofol injection (RC) [p<0.05] ([2]; female animals): significantly decreased
granulocytes vs Propofol injection (RC) [p<0.05] ([2]; male animals): significantly decreased
level of sodium vs Propofol injection (RC) [p<0.05] ([2]; male animals): significantly increased
lymphocytes counts vs Propofol injection (RC) [p<0.05] ([2]; male animals): significantly increased
solubility ([1]; water, solubility in water): > 100 mg/mL
anesthetic effect, relative efficacy (albino mouse; Intermediate Dose): more effective
dose response relation (statistical analysis) (albino mouse): No significant dose—response effects were evident

Aspirin in blood / plasma ([4]; 325 mg dose, oral): No Aspirin was found in blood
Adrenals (Abs) organ weight, Significance[P < 0.05] [5]: Decrease (Male)
Alkaline Phosphatase, Significance [P < 0.05] [5]: Increase (Female)
All Blood Parameters, Significance [P < 0.05] [5]: None
All Clinical Chemistry, Significance [P < 0.05] [5]: None(but two
Blood Glucose, Significance [P < 0.05] [5]: Decrease (Female)
Cholesterol, Significance [P < 0.05] [5]: Increase (Male)
Creatinine, Significance [P < 0.05] [5]: Decrease (Male)
Kidney (Abs) organ weight, Significance[P < 0.05] [5]: Decrease (Male)
Kidney (Rel) organ weight, Significance[P < 0.05] [5]: Increase (Male)
Platelet Count, Significance [P < 0.05] [5]: Increase (Male)
Spleen (Abs) organ weight, Significance[P < 0.05] [5]: Decrease (Male)
Total Protein, Significance [P < 0.05] [5]: Increase (Female)
Compound: CC(=O)Oc1ccccc1C(=O)O[C@H](C)[C@H](N)C(=O)O [2-O-Acetylsalicylic Acid (2S,3R)-(−)-threonine Ester]
esters inducing evidence of irritation of gastric mucosa [3]: none
Mean Clotting Time (± S.D.) (Male albino rats): 5.3 ± 1.06 min
relative efficacy on clotting time (Male albino rats; 2 hours after dosing): relatively better efficacy than the other two formulations
mean blood clotting time with respect to positive control (statistics) (Male albino rats): no significant difference at 5% significance level
Clotting Time (rats; 10 mg/kg 1 hr): 7.4 min
Clotting Time (rats; 10 mg/kg 24 hr): 3.6 min
Clotting Time (rats; 20 mg/kg 2 hr): 5.3 min
response in the rat blood clotting time (rats; compared against the various amino acid esters): consistently a better response
Salicylic Acid in human plasma (profile, words) [4]: prolonged and sustained formation and disappearance of Salicylic acid
Food intake [5]: normal and comparable to the animals of vehicle control group
histological sections of organs [5]: did not show any histopathological changes
Mean Clotting Time (±S.D.), Low Dose (albino rats): 5.2 ± 1.14 min
Mean Clotting Time (±S.D.), Intermediate Dose (albino rats): 5.6 ± 0.84 min
Mean Clotting Time (±S.D.), High Dose (albino rats): 7.4 ± 0.97 min
effectiveness with respect to clotting time (albino rats): as effective as acetylsalicylic acid
statistical analysis of mean clotting time vs vehicle control (albino rats): significant improvement at 5% significance level in the efficacy for the high dose
AVERAGE CLOTTING TIME (human volunteers; 81 mg): 5.2 min and 5.1 min
AVERAGE CLOTTING TIME (human volunteers; 325 mg): 6.2 min and 6.0 min
effectiveness on clotting time (human volunteers; low dose of 80 mg, with baseline correction): as effective as 325 mg Bayer Aspirin

Compound: CC(=O)Oc1ccccc1C(=O)OC1CN[C@H](C(=O)O)C1 (stereo partly drawn) [2-O-Acetylsalicylic Acid (2S,4R)-4-hydroxyproline Ester]
esters inducing evidence of irritation of gastric mucosa [3]: none
Mean Clotting Time (± S.D.) (Male albino rats): 4.2 ± 1.32 min
mean blood clotting time with respect to positive control (statistics) (Male albino rats): no significant difference at 5% significance level
Clotting Time (rats; 10 mg/kg 1 hr): 7.5 min
Clotting Time (rats; 10 mg/kg 24 hr): 3.3 min
Clotting Time (rats; 20 mg/kg 2 hr): 4.2 min
Mean Clotting Time (±S.D.), Low Dose (albino rats): 6.1 ± 1.10 min
Mean Clotting Time (±S.D.), Intermediate Dose (albino rats): 5.7 ± 0.82 min
Mean Clotting Time (±S.D.), High Dose (albino rats): 7.5 ± 1.18 min
effectiveness with respect to clotting time (albino rats): as effective as acetylsalicylic acid
statistical analysis of mean clotting time vs vehicle control (albino rats): significant improvement at 5% significance level in the efficacy for the high dose and low dose

Compound: CC(=O)Oc1ccccc1C(=O)OC[C@H](N)C(=O)O [L-serine ester of acetylsalicylic acid, 2-O-Acetylsalicylic Acid (2S)-(+)-serine Ester]
esters inducing evidence of irritation of gastric mucosa [3]: none
Mean Clotting Time (± S.D.) (Male albino rats): 3.8 ± 0.92 min
Clotting Time (rats; 10 mg/kg 1 hr): 6.9 min
Clotting Time (rats; 10 mg/kg 24 hr): 4.4 min
Clotting Time (rats; 20 mg/kg 2 hr): 3.8 min
Mean Clotting Time (±S.D.), Low Dose (albino rats): 5.7 ± 1.34 min
Mean Clotting Time (±S.D.), Intermediate Dose (albino rats): 6.8 ± 1.48 min
Mean Clotting Time (±S.D.), High Dose (albino rats): 6.9 ± 1.37 min
effectiveness with respect to clotting time (albino rats): as effective as acetylsalicylic acid

Compound: O=C(O)[C@@H]1C[C@@H](O)CN1 [hydroxyproline]
solubility in deionized water [6]: ~369 mg/mL (≈ 2810 mM)

Compound: NCCCC[C@H](N)C(=O)O [lysine]
solubility [6]: 700 mg/mL (≈ 4790 mM)
solubility in deionized water [6]: approximately 700 g/L

Compound: Cyclosporine A N-(L-lysine)-glycine ester, dihydrochloride trihydrate [Cyclosporine-GL]
Mean DAI (laboratory mice [7]): 0.532
Mean DAI (laboratory mice [8]): 1.100

Compound: Cyclosporine A N-(L-proline)-glycine ester, hydrochloride [Cyclosporine-GP]
Mean DAI (laboratory mice [7]): 0.066
statistical result vs Cyclosporine reference drug (laboratory mice [7]; treatment study): statistically significant results
performance in the model (laboratory mice [8]): statistically significant performance compared to Cyclosporine A
Mean DAI (laboratory mice [8]): 1.062

Compound: Glycine Ester of Cyclosporine A [Cyclosporine-G]
Mean DAI (laboratory mice [7]): 0.100
mice that died (out of 10) (laboratory mice [7]; treatment study): none died
statistical result vs Cyclosporine reference drug (laboratory mice [7]; treatment study): statistically significant results
performance in the model (laboratory mice [8]): didn't perform as expected
Mean DAI (laboratory mice [8]): 1.531
